What is called IC50 is the midpoint of a concentration-inhibition curve.

Each structure is given as a SMILES string. Where only a bound is given, the exact number is not on record here.

Common to all, as to assay type: biochemical
In one assay the target is T1, B-Raf (Homo sapiens, UniProt P15056).
T1 construct: purchased Upstate Biotechnology
Kind of assay: AlphaScreen kinase assay, B-Raf. The note with it: read-out: IC50, activity toward kinase B-Raf. A general note: In Alpha technology, singlet oxygen from a donor bead excites a nearby acceptor bead.

Another assay addresses T2, FGFR1 (Homo sapiens, UniProt P11362, C488A/C584S).
T2 construct: P1351.pET N6 BI-PTP FGFR A458-E765-X C488A, C584S; made in house; host or cells: E. coli (PTP1B co-expressed)
Kind of assay: AlphaScreen kinase assay, FGFR1. Conditions: read-out: IC50, activity toward kinase FGFR.

In another assay the target is T3, Kit (Homo sapiens, UniProt P10721).
T3 construct: P1332.N6 BI PTP KIT M552-K948-X COD; His6 (N); made in house; host or cells: E. coli (PTP1B co-expressed)
T3 sequence (P10721 with tags, fused parts or gaps): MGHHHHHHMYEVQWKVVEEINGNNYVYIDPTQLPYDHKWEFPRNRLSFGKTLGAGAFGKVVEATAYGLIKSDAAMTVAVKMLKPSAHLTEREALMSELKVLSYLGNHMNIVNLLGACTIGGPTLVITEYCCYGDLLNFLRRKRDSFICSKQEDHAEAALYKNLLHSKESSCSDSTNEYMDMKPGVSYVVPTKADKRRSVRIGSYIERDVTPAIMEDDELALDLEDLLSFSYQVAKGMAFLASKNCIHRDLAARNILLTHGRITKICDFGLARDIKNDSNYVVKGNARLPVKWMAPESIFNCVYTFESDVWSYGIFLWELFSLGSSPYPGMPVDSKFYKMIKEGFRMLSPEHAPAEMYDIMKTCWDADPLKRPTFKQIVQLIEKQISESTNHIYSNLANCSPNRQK
Kind of assay: AlphaScreen kinase assay, Kit. The note with it: read-out: IC50, activity toward kinase Kit.

A further assay deals with T4, B-Raf V600E (Homo sapiens, UniProt P15056, V600E).
T4 construct: P4254. pFastBacBD-CDC37 BRAF D437-K722-X, V600E; His6 with pFastBac HT leader (TEV site) (N); made in house; host or cells: Sf9 (baculovirus; chaperone CDC37 co-expressed)
T4 sequence (P15056 with tags, fused parts or gaps V600E): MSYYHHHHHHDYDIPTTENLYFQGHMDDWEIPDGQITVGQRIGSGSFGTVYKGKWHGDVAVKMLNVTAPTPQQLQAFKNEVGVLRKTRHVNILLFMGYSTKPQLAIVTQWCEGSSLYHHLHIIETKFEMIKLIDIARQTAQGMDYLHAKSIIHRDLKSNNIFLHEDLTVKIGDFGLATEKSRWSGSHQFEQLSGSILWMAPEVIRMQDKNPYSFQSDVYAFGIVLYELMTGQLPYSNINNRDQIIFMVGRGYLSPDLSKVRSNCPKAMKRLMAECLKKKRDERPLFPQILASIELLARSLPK
Kind of assay: AlphaScreen kinase assay, B-Raf V600E. Conditions: read-out: IC50, activity toward kinase B-Raf V600E.

A further assay addresses T5, Fms (Homo sapiens, UniProt P07333).
T5 construct: purchased Upstate Biotechnology
Kind of assay: AlphaScreen kinase assay, Fms. Conditions: read-out: IC50, activity toward kinase Fms.

T1 sequence (P15056 whole entry): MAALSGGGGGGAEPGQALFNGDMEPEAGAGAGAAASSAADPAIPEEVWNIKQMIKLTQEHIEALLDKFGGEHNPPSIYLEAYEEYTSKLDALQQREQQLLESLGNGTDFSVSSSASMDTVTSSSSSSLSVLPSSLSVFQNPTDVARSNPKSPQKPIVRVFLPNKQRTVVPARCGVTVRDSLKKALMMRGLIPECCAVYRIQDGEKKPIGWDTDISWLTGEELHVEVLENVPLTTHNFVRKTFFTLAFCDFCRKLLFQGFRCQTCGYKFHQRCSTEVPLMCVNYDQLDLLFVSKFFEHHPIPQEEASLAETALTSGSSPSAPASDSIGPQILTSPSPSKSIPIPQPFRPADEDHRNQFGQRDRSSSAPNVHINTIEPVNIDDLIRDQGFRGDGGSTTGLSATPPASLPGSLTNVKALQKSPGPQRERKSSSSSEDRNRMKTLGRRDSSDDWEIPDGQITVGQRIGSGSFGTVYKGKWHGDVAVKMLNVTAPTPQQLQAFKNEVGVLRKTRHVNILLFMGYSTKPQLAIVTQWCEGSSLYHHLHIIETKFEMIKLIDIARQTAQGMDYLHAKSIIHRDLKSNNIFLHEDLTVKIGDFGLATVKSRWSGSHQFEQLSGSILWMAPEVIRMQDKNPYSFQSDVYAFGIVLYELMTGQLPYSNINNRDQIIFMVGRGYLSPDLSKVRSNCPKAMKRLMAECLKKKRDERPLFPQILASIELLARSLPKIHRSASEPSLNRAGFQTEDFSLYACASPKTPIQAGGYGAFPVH
T5 sequence (P07333 20-972): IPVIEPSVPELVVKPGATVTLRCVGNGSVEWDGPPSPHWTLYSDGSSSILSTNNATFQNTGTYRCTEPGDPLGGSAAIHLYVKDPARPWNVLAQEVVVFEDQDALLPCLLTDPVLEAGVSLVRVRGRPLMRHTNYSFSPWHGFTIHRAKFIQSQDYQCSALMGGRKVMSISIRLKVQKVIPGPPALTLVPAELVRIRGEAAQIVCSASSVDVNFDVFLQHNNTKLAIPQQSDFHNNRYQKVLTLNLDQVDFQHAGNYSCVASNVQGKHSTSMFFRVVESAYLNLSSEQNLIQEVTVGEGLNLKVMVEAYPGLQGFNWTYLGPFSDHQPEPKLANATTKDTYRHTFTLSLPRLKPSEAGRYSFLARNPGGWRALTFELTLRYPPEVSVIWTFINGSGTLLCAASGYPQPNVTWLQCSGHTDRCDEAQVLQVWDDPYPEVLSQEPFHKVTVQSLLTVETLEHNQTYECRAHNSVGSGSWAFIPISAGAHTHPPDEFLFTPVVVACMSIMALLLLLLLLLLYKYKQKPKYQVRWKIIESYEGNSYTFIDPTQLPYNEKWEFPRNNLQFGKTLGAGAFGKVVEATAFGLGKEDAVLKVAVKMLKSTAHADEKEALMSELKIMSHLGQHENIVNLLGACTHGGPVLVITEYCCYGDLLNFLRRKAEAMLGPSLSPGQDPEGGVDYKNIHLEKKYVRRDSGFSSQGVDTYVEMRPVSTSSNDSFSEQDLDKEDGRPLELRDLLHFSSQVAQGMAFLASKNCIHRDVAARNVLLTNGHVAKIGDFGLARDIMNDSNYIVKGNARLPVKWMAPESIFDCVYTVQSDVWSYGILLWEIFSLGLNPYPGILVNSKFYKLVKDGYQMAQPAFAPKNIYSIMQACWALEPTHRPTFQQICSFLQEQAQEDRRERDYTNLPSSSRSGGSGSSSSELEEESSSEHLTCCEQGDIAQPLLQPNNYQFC
T2 sequence (P11362 458-765 C488A/C584S): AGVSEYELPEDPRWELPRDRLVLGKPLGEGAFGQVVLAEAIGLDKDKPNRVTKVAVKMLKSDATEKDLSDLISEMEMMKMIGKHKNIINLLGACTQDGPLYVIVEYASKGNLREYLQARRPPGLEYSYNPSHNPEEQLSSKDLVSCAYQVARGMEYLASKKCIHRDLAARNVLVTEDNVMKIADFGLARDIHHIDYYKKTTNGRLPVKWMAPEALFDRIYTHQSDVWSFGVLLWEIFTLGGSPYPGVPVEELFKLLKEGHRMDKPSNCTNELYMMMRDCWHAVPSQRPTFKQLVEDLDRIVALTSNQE

`COc1cccc(Cc2c[nH]c3ncc(Br)cc23)c1` [Compound P-0556]: the IC50 at B-Raf, on FGFR1 and on Kit was at most 10 µM each time.

Turning to `O=C(c1c(F)ccc(NS(=O)(=O)c2ccsc2)c1F)c1c[nH]c2ncc(Cl)cc12` [Compound P-1268, Thiophene-3-sulfonic acid [3-(5-chloro-1H-pyrrolo[2,3-b]pyridin-3-carbonyl)-2,4-difluoro-phenyl]-amide], the IC50 on B-Raf and on Kit was at most 10 µM in each case.

On to `CCCS(=O)(=O)Nc1ccc(F)c(C(=O)c2c[nH]c3ncc(CCC(=O)O)cc23)c1F` [Compound P-1270, 3-3-[2,6-difluoro-3-(propane-1-sulfonylamino)-benzoyl]-1H-pyrrolo[2,3-b]pyridin-5-yl-propionic acid], for which the IC50 at B-Raf, on B-Raf V600E and on FGFR1 was at most 10 µM in each case.

Turning to `O=S(=O)(Nc1ccc(F)c(C(O)c2c[nH]c3ncc(Cl)cc23)c1F)c1ccc(C(F)(F)F)cc1` (centres unmarked) [Compound P-1539], the IC50 at B-Raf, on B-Raf V600E and at FGFR1 was at most 10 µM each time.

Consider `O=C(c1cc(NS(=O)(=O)c2cccc(F)c2)ccc1Cl)c1c[nH]c2ncc(Cl)cc12` [Compound P-1663], for which the concentration for half-maximal inhibition (IC50) at B-Raf, on B-Raf V600E and at Fms was at most 10 µM each time.

With `COc1cnc2[nH]cc(C(=O)c3cc(NS(=O)(=O)c4cccc(F)c4)ccc3Cl)c2c1` [Compound P-1664], the IC50 on B-Raf, at B-Raf V600E and on Fms was at most 10 µM each time.

For the molecule `O=C(c1cc(NS(=O)(=O)c2cccc(F)c2)ccc1F)c1c[nH]c2ncc(Cl)cc12` [Compound P-1665], the IC50 on B-Raf, at B-Raf V600E and at Fms was at most 10 µM throughout.

For `O=C(c1c(F)ccc(NS(=O)(=O)c2ccc(C(F)(F)F)cc2)c1F)c1c[nH]c2ncc(-c3ccc(Cl)cc3)cc12` [Compound P-1670], the IC50 on B-Raf, at B-Raf V600E and on Fms was at most 10 µM each time.

As to `N#Cc1ccc(S(=O)(=O)Nc2cccc(C(=O)c3c[nH]c4ncccc34)c2)cc1` [Compound P-1701], the IC50 on B-Raf, at B-Raf V600E and on Fms was at most 10 µM throughout.

For the molecule `O=C(Nc1cccc(Cl)c1)Nc1cccc(C(=O)c2c[nH]c3ncccc23)c1` [Compound P-1710, 1-(3-Chloro-phenyl)-3-[3-(1H-pyrrolo[2,3-b]pyridine-3-carbonyl)-phenyl]-urea], the IC50 on B-Raf, at B-Raf V600E and on Fms was at most 10 µM in each case.

For the molecule `CCCCOc1ccc(NC(=O)Nc2cccc(C(=O)c3c[nH]c4ncccc34)c2)cc1` [Compound P-1715, 1-(4-Butoxy-phenyl)-3-[3-(1H -pyrrolo[2,3-b]pyridine-3-carbonyl)-phenyl]-urea], the IC50 at B-Raf, on B-Raf V600E and on Fms was at most 10 µM each time.

In the case of `O=C(Nc1ccc(C(F)(F)F)cc1)Nc1cccc(C(=O)c2c[nH]c3ncccc23)c1` [Compound P-1717, 1-[3-(1H-Pyrrolo[2,3-b]pyridine-3-carbonyl)-phenyl]-3-(4-trifluoromethyl-phenyl)-urea], the IC50 on B-Raf, on B-Raf V600E and at Fms was at most 10 µM throughout.

As for `O=C(Nc1cccc(Cl)c1)Nc1cccc(C(=O)c2c[nH]c3ncc(-c4cccnc4)cc23)c1` [Compound P-1726, 1-(3-Chloro-phenyl)-3-[3-(5-pyridin-3-yl-1H-pyrrolo[2,3-b]pyridine-3-carbonyl)-phenyl]-urea], the IC50 at B-Raf, at B-Raf V600E and at Fms was at most 10 µM in each case.

In the case of `COc1ccc(NC(=O)Nc2cccc(C(=O)c3c[nH]c4ncc(Cl)cc34)c2)cc1` [Compound P-1734, 1-[3-(5-Chloro-1H-pyrrolo[2,3-b]pyridine-3-carbonyl)-phenyl]-3-(4-methoxy-phenyl)-urea], the IC50 at B-Raf, at B-Raf V600E and at Fms was at most 10 µM each time.

In the case of `O=C(Nc1cccc(C(=O)c2c[nH]c3ncc(Cl)cc23)c1)Nc1ccc(F)c(F)c1` [Compound P-1735, 1-[3-(5-Chloro-1H-pyrrolo[2,3-b]pyridine-3-carbonyl)-phenyl]-3-(3,4-difluoro-phenyl)-urea], the IC50 on B-Raf, on B-Raf V600E and on Fms was at most 10 µM throughout.

For `O=C(Nc1cccc(Cl)c1)Nc1cccc(C(=O)c2c[nH]c3ncc(Cl)cc23)c1` [Compound P-1736, 1-(3-Chloro-phenyl)-3-[3-(5-chloro-1H-pyrrolo[2,3-b]pyridine-3-carbonyl)-phenyl]-urea], the IC50 on B-Raf, at B-Raf V600E and at Fms was at most 10 µM each time.

Take `CCCCOc1ccc(NC(=O)Nc2cccc(C(=O)c3c[nH]c4ncc(Cl)cc34)c2)cc1` [Compound P-1741, 1-(4-Butoxy-phenyl)-3-[3-(5-chloro-1H-pyrrolo[2,3-b]pyridine-3-carbonyl)-phenyl]-urea]: the IC50 on B-Raf, at B-Raf V600E and at Fms was at most 10 µM in each case.

For `O=C(Nc1cccc(C(=O)c2c[nH]c3ncccc23)c1)Nc1cccc(C(F)(F)F)c1` [Compound P-1746, 1-[3-(1H-Pyrrolo[2,3-b]pyridine-3-carbonyl)-phenyl]-3-(3-trifluoromethyl-phenyl)-urea], the IC50 on B-Raf, at B-Raf V600E and on Fms was at most 10 µM in each case.

As for `O=C(Nc1cccc(C(=O)c2c[nH]c3ncc(Cl)cc23)c1)Nc1cccc(C(F)(F)F)c1` [Compound P-1747, 1-[3-(5-Chloro-1H-pyrrolo[2,3-b]pyridine-3-carbonyl)-phenyl]-3-(3-trifluoromethyl-phenyl)-urea], the IC50 on B-Raf, at B-Raf V600E and on Fms was at most 10 µM in each case.

Turning to `Cc1cccc(NC(=O)Nc2cccc(C(=O)c3c[nH]c4ncc(-c5ccc(F)cc5)cc34)c2)c1` [Compound P-1758, 1-{3-[5-(4-Fluoro-phenyl)-1H-pyrrolo[2,3-b]pyridine-3-carbonyl]-phenyl}-3-m-tolyl-urea], the IC50 on B-Raf, at B-Raf V600E and on Fms was at most 10 µM in each case.

Take `COc1cc(NC(=O)Nc2cccc(C(=O)c3c[nH]c4ncccc34)c2)cc(C(F)(F)F)c1` [Compound P-1762, 1-(3-Methoxy-5-trifluoromethyl-phenyl)-3-[3-(1H-pyrrolo[2,3-b]pyridine-3-carbonyl)-phenyl]-urea]: the IC50 on B-Raf, on B-Raf V600E and on Fms was at most 10 µM throughout.

On to `COc1ccc(NC(=O)Nc2cccc(C(=O)c3c[nH]c4ncccc34)c2)cn1` [Compound P-1763, 1-(6-Methoxy-pyridin-3-yl)-3-[3-(1H-pyrrolo[2,3-b]pyridine-3-carbonyl)-phenyl]-urea], for which the IC50 on B-Raf, on B-Raf V600E and at Fms was at most 10 µM throughout.

As to `O=C(Nc1cccc(C(=O)c2c[nH]c3ncccc23)c1)Nc1ccc(C(F)(F)F)c(Cl)c1` [Compound P-1766, 1-(3-Chloro-4-trifluoromethyl-phenyl)-3-[3-(1H-pyrrolo[2,3-b]pyridine-3-carbonyl)-phenyl]-urea], the 50% inhibitory concentration (IC50) at B-Raf, at B-Raf V600E and on Fms was at most 10 µM throughout.

Turning to `O=C(Nc1cccnc1)Nc1cccc(C(=O)c2c[nH]c3ncc(Cl)cc23)c1` [Compound P-1771, 1-[3-(5-Chloro-1H-pyrrolo[2,3-b]pyridine-3-carbonyl)-phenyl]-3-pyridin-3-yl-urea], the IC50 at B-Raf, at B-Raf V600E and at Fms was at most 10 µM in each case.

Turning to `COCCNC(=O)Nc1cccc(C(=O)c2c[nH]c3ncc(Cl)cc23)c1` [Compound P-1772, 1-[3-(5-Chloro-1H-pyrrolo[2 3-b]pyridine-3-carbonyl)-phenyl]-3-(2-methoxy-ethyl)-urea], the IC50 on B-Raf, at B-Raf V600E and on Fms was at most 10 µM throughout.

For `COc1cc(NC(=O)Nc2cccc(C(=O)c3c[nH]c4ncc(Cl)cc34)c2)cc(C(F)(F)F)c1` [Compound P-1773, 1-[3-(5-Chloro-1H-pyrrolo[2,3-b]pyridine-3-carbonyl)-phenyl]-3-(3-methoxy-5-trifluoromethyl-phenyl)-urea], the IC50 on B-Raf, on B-Raf V600E and on Fms was at most 10 µM each time.

As for `COc1ccc(NC(=O)Nc2cccc(C(=O)c3c[nH]c4ncc(Cl)cc34)c2)cn1` [Compound P-1774, 1-[3-(5-Chloro-1H-pyrrolo[2,3-b]pyridine-3-carbonyl)-phenyl]-3-(6-methoxy-pyridin-3-yl)-urea], the IC50 on B-Raf, on B-Raf V600E and at Fms was at most 10 µM throughout.

As to `O=C(c1c(F)ccc(NS(=O)(=O)c2ccc(F)cc2)c1F)c1c[nH]c2ncccc12` [Compound P-1865, N-[2,4-Difluoro-3-(1H-pyrrolo[2,3-b]pyridine-3-carbonyl)-phenyl]-4-fluoro-benzenesulfonamide], the IC50 on B-Raf, on B-Raf V600E and at Kit was at most 10 µM each time.
